The test system of this experiment is C17.2 mouse neural stem cells. Put plainly: Neural stem cell differentiation assay (Tuj1/GFAP immunofluorescence staining). Particulars: C17.2 cells, 6 days; for increase of neurons compared to control: vs DMSO control. The format is cell-based. The source says: We recently developed another protein-based screening method, the target protein oriented natural products isolation method (TPO-NAPI) using protein beads (Fig. 2B). Agalloside, inohanamine, α-mangostine, BE-14106, isomicromonolactam, staurosporin and linarin were isolated as Hes1 binding compounds using the TPO-NAPI method[15],[17]. Rat Hes1 (1–95) containing basic and helix-loop-helix domains was immobilized because the helix-loop-helix domain is known to be important for Hes1-Hes1 interaction; therefore, utilizing this domain in the beads method would likely be effective for screening Hes1 dimer inhibitors. GST-Hes1 immobilized beads were prepared by mixing freshly prepared GST-Hes1 protein with glutathione Sepharose 4B beads. GST-only beads were prepared as a control. After incubating the beads with plant MeOH extracts at 4 °C for 2 h, bound compounds were eluted by adding EtOH and heating at 100 °C for 3 min, then the eluted compounds were analyzed by HPLC. […] The MeOH extract (64.6 g) of Terminalia chebula bark was partitioned with hexane, EtOAc and BuOH to obtain hexane (1.5 g), EtOAc (3.6 g), BuOH (42.6 g), and aqueous (20.5 g) soluble fractions. The EtOAc fraction contained the target peak and was subjected to silica gel column chromatography to give eight fractions (1A-H). Fraction 1D contained the target peak and was separated by ODS column chromatography and reverse-phase HPLC to give compound 11 (0.4 mg). Compound 11 was identified as 4-O-(4″-O-galloyl-α-L-rhamnopyranosyl)ellagic acid by comparison of its NMR data with reported spectral data[37]. […] This is the strongest Hes1 dimer inhibitor reported to date. The ability of 11 to accelerate the differentiation of C17.2 mouse neural stem cells was evaluated (Fig. 5). C17.2 cells (2 × 10^5 cells/mL) were seeded in a poly-L-lysine-coated 24 well plates and incubated for 24 h, then the cells were treated with DMSO (control), 100 μM valproic acid (VPA), 5 μM retinoic acid (RA) (positive controls) or 11 (1 or 5 μM) for 6 days. A confocal microscope was used to obtain images of differentiated neural cells after immunostaining class III β-tubulin (Tuj1) in neurons, and glial fibrillary acidic protein (GFAP) in astrocytes and nuclei (TO-PRO-3). […] In contrast, the control dish containing cells treated with DMSO contained small number of neurons.
C17.2 cells were cultured in proliferation medium [DMEM (DS Pharma Biomedical Co., Ltd. Osaka, Japan) supplemented with 10% fetal bovine serum (Biowest, Nuaillé, France), 5% horse serum (Gibco, Life Technologies, Tokyo, Japan)]. Neural differentiation of C17.2 cells was initiated by transferring the cells to differentiation medium [Neurobasal Medium (Gibco) supplemented with 2% B-27 without vitamin A (Gibco), 1% antibiotic-antimycotic (Gibco)]. All cultures were maintained in a humidified incubator at 37 °C in 5% CO2/95% air.
C17.2 cells were dissociated using the proliferation medium 2 × 10^5 cells/mL on cover glass (MATSUNAMI GLASS) coated with poly-L-lysine and fibronectin/laminin. After incubation for 24 h, cells were washed with D-MEM and treated with individual compounds in differentiation medium for 6 days.
C17.2 cells were fixed with 4% paraformaldehyde in PBS for 20 min at room temperature (r.t.) and washed with 1% BSA in PBS three times. After blocking with 10% BSA in 0.3% Triton X-100 in PBS for 45 min at r.t., fixed cells were incubated with primary antibodies (anti-βIII-Tubulin; Neuronal Class III, Mouse-Mono, 1:400, R&D Systems^TM; anti-GFAP, 1:400, VERITAS) for 12 h at 4 °C. After washing three times with 1% BSA in PBS (500 μL/well), cells were incubated with secondary antibodies (Alexa Fluor® 488 goat anti-mouse IgG (H + L), 1:400, Life Technologies; Alexa Fluor® 555 goat ant-rabbit IgG (H + L), 1:200, Life Technologies) for 1 hr at r.t. in the dark. […]

This is an account of results in paper PMC6987128, “Target protein-oriented isolation of Hes1 dimer inhibitors using protein based methods” (Scientific Reports, 2020).

Turning to `CC1OC(Oc2cc3c(=O)oc4c(O)c(O)cc5c(=O)oc(c2O)c3c45)C(O)C(O)C1OC(=O)c1cc(O)c(O)c(O)c1` [Compound 11, 4-O-(4″-O-galloyl-α-L-rhamnopyranosyl)ellagic acid], under “1 µM”, the differentiated neurons was determined as 33.6% and the “increase of neurons compared to control” value worked out at 67%. For the same compound, under “5 µM”, the differentiated neurons was 45.4% and the “increase of neurons compared to control” value came to 125%.
